# Data: PMC5218480 (PLoS ONE, 2017)
# System: MV-4-11 cells
# Experiment: Gene expression microarray analysis (Affymetrix PrimeView) and GSEA
# Assay type: cell-based, human
# Design: RFU PODN (11730768_x_at) / Fold change /veh PODN (11730768_x_at) / RFU LINC00158 (11744669_a_at) / Fold change /veh LINC00158 (11744669_a_at) / RFU DUSP10 (11751237_a_at) / Fold change /veh DUSP10 (11751237_a_at) / RFU ID3 (11757404_x_at) / Fold change /veh ID3 (11757404_x_at) / RFU PLEKHG5 (11737974_s_at) / Fold change /veh PLEKHG5 (11737974_s_at) / RFU LRRC4B (11730491_at) / Fold change /veh LRRC4B (11730491_at) / RFU GIMAP4 (11747438_a_at) / Fold change /veh GIMAP4 (11747438_a_at) / RFU KRT8 (11758183_x_at) / Fold change /veh KRT8 (11758183_x_at) / RFU CNN1 (11734310_a_at) / Fold change /veh CNN1 (11734310_a_at) / RFU VPS37D (11726825_at) / Fold change /veh VPS37D (11726825_at) / RFU C10orf10 (11716522_x_at) / Fold change /veh C10orf10 (11716522_x_at) / RFU KIR2DL2 /// KIR2DL4 /// KIR2DL5A /// KIR2DL5B /// KIR2DS1 /// KIR2DS2 /// KIR2DS3 /// KIR2DS4 /// KIR3DL3 /// KIR3DL3 /// KIR3DS1 (11738374_at) / Fold change /veh KIR2DL2 /// KIR2DL4 /// KIR2DL5A /// KIR2DL5B /// KIR2DS1 /// KIR2DS2 /// KIR2DS3 /// KIR2DS4 /// KIR3DL3 /// KIR3DL3 /// KIR3DS1 (11738374_at) / RFU C1QL1 (11718748_at) / Fold change /veh C1QL1 (11718748_at) / RFU TMPRSS4 (11747572_a_at) / Fold change /veh TMPRSS4 (11747572_a_at) / RFU HAMP (11756126_x_at) / Fold change /veh HAMP (11756126_x_at) / RFU RNFT2 (11725882_a_at) / Fold change /veh RNFT2 (11725882_a_at) / RFU NR4A2 (11747474_a_at) / Fold change /veh NR4A2 (11747474_a_at) / RFU ABCC12 (11746883_a_at) / Fold change /veh ABCC12 (11746883_a_at) / RFU TMEM136 (11760407_x_at) / Fold change /veh TMEM136 (11760407_x_at) / RFU CLDN22 /// WWC2 (11732394_at) / Fold change /veh CLDN22 /// WWC2 (11732394_at) / RFU HLA-DPB1 (11760878_x_at) / Fold change /veh HLA-DPB1 (11760878_x_at) / RFU SPINT1 (11716480_a_at) / Fold change /veh SPINT1 (11716480_a_at) / RFU GAP43 (11754022_s_at) / Fold change /veh GAP43 (11754022_s_at) / RFU A4GNT (11735810_at) / Fold change /veh A4GNT (11735810_at) / RFU PRB3 (11715151_x_at) / Fold change /veh PRB3 (11715151_x_at) / RFU TUBB4B (11761932_at) / Fold change /veh TUBB4B (11761932_at) / RFU CAPN14 (11732068_a_at) / Fold change /veh CAPN14 (11732068_a_at) / RFU TMCC2 (11721928_a_at) / Fold change /veh TMCC2 (11721928_a_at) / RFU IRGQ (11745062_a_at) / Fold change /veh IRGQ (11745062_a_at) / RFU FAM174B (11720279_a_at) / Fold change /veh FAM174B (11720279_a_at) / RFU TMPRSS4 (11748680_a_at) / Fold change /veh TMPRSS4 (11748680_a_at) / RFU FAM212B (11763350_a_at) / Fold change /veh FAM212B (11763350_a_at) / RFU PLEKHG5 (11743358_a_at) / Fold change /veh PLEKHG5 (11743358_a_at) / RFU ZSCAN30 (11745921_a_at) / Fold change /veh ZSCAN30 (11745921_a_at) / RFU CMKLR1 (11741424_a_at) / Fold change /veh CMKLR1 (11741424_a_at) / RFU LOC101060620 /// MAPK8IP1 (11723275_at) / Fold change /veh LOC101060620 /// MAPK8IP1 (11723275_at) / RFU SPTSSB (11747773_x_at) / Fold change /veh SPTSSB (11747773_x_at) / RFU PRSS12 (11739890_at) / Fold change /veh PRSS12 (11739890_at) / RFU BIN1 (11741810_x_at) / Fold change /veh BIN1 (11741810_x_at) / RFU WNT11 (11732464_a_at) / Fold change /veh WNT11 (11732464_a_at) / RFU C10orf10 (11716521_a_at) / Fold change /veh C10orf10 (11716521_a_at) / RFU C5orf56 (11738089_at) / Fold change /veh C5orf56 (11738089_at) / RFU CYB561 (11721691_x_at) / Fold change /veh CYB561 (11721691_x_at) / RFU ANKRD19P (11752326_a_at) / Fold change /veh ANKRD19P (11752326_a_at) / RFU OR2T12 /// OR2T33 /// OR2T8 (11738714_s_at) / Fold change /veh OR2T12 /// OR2T33 /// OR2T8 (11738714_s_at) / RFU VCAN (11748164_a_at) / Fold change /veh VCAN (11748164_a_at) / RFU JSRP1 (11732532_at) / Fold change /veh JSRP1 (11732532_at) / RFU KRTAP10-11 (11738290_x_at) / Fold change /veh KRTAP10-11 (11738290_x_at) / RFU MYO3A (11730013_a_at) / Fold change /veh MYO3A (11730013_a_at) / RFU EBF3 (11725865_a_at) / Fold change /veh EBF3 (11725865_a_at) / RFU CAMK2N1 (11719241_x_at) / Fold change /veh CAMK2N1 (11719241_x_at) / RFU C5orf56 (11738088_a_at) / Fold change /veh C5orf56 (11738088_a_at) / RFU OLFML3 (11715873_a_at) / Fold change /veh OLFML3 (11715873_a_at) / RFU LOC100653217 /// NTM (11731650_a_at) / Fold change /veh LOC100653217 /// NTM (11731650_a_at) / RFU MAPK11 (11762145_a_at) / Fold change /veh MAPK11 (11762145_a_at) / RFU FIZ1 (11724087_x_at) / Fold change /veh FIZ1 (11724087_x_at) / RFU OASL (11726364_x_at) / Fold change /veh OASL (11726364_x_at) / RFU SOX15 (11748057_x_at) / Fold change /veh SOX15 (11748057_x_at) / RFU CD79A (11719716_a_at) / Fold change /veh CD79A (11719716_a_at) / RFU HIST1H1D (11736915_at) / Fold change /veh HIST1H1D (11736915_at) / RFU CASKIN2 (11723855_a_at) / Fold change /veh CASKIN2 (11723855_a_at) / RFU LOC730098 (11760151_x_at) / Fold change /veh LOC730098 (11760151_x_at) / RFU OR4N2 (11742367_at) / Fold change /veh OR4N2 (11742367_at) / RFU PRRT2 (11749266_a_at) / Fold change /veh PRRT2 (11749266_a_at) / RFU SNX32 (11753110_a_at) / Fold change /veh SNX32 (11753110_a_at) / RFU CDHR5 (11726645_a_at) / Fold change /veh CDHR5 (11726645_a_at) / RFU RCAN1 (11760418_a_at) / Fold change /veh RCAN1 (11760418_a_at) / RFU FAM167A (11723789_a_at) / Fold change /veh FAM167A (11723789_a_at) / RFU FAM26E (11764081_at) / Fold change /veh FAM26E (11764081_at) / RFU ISYNA1 (11749810_s_at) / Fold change /veh ISYNA1 (11749810_s_at) / RFU ACY1 (11761880_at) / Fold change /veh ACY1 (11761880_at) / RFU 11764098_at / Fold change /veh 11764098_at / RFU SAMD14 (11745864_x_at) / Fold change /veh SAMD14 (11745864_x_at) / RFU NPB (11741838_a_at) / Fold change /veh NPB (11741838_a_at) / RFU TMPRSS6 (11731388_a_at) / Fold change /veh TMPRSS6 (11731388_a_at) / RFU KRTAP10-2 (11738614_at) / Fold change /veh KRTAP10-2 (11738614_at) / RFU ARHGAP8 /// PRR5-ARHGAP8 (11727945_x_at) / Fold change /veh ARHGAP8 /// PRR5-ARHGAP8 (11727945_x_at) / RFU KRTAP5-7 /// NADSYN1 (11734609_at) / Fold change /veh KRTAP5-7 /// NADSYN1 (11734609_at) / RFU RASL12 (11751679_a_at) / Fold change /veh RASL12 (11751679_a_at) / RFU CDKN2B (11736163_a_at) / Fold change /veh CDKN2B (11736163_a_at) / RFU PRF1 (11729649_at) / Fold change /veh PRF1 (11729649_at) / RFU, ZNF638 /// ZNF638-IT1 / Fold change vs veh, ZNF638 /// ZNF638-IT1 / RFU, PANK3 / Fold change vs veh, PANK3 / RFU, SH3YL1 / Fold change vs veh, SH3YL1 / RFU, ZEB2 / Fold change vs veh, ZEB2 / RFU, NRIP1 / Fold change vs veh, NRIP1 / RFU, PTTG1IP / Fold change vs veh, PTTG1IP / RFU, CAPN2 / Fold change vs veh, CAPN2 / RFU, MED14 / Fold change vs veh, MED14 / RFU, SNORA58 / Fold change vs veh, SNORA58 / RFU, C1orf63 / Fold change vs veh, C1orf63 / RFU, LRRFIP1 / Fold change vs veh, LRRFIP1 / RFU, NDUFAF7 / Fold change vs veh, NDUFAF7 / RFU, SLC12A2 / Fold change vs veh, SLC12A2 / RFU, IBTK / Fold change vs veh, IBTK / RFU, ESF1 / Fold change vs veh, ESF1 / Fold change vs veh, TMEM50B / RFU, TAOK1 / Fold change vs veh, TAOK1 / RFU, ACBD3 / Fold change vs veh, ACBD3 / RFU, TMA16 / Fold change vs veh, TMA16 / RFU, RWDD3 / Fold change vs veh, RWDD3 / RFU, BCAT1 / Fold change vs veh, BCAT1 / RFU, EDEM3 / Fold change vs veh, EDEM3 / RFU, TMEM33 / Fold change vs veh, TMEM33 / RFU, WDR75 / Fold change vs veh, WDR75 / RFU, AHCTF1 / Fold change vs veh, AHCTF1 / RFU, TFRC / Fold change vs veh, TFRC / RFU, ZDHHC17 / Fold change vs veh, ZDHHC17 / RFU, NOM1 / Fold change vs veh, NOM1 / RFU, ARL8B / Fold change vs veh, ARL8B / RFU, ZBTB11 / Fold change vs veh, ZBTB11 / RFU, TAMM41 / Fold change vs veh, TAMM41 / RFU, KIAA1704 /// LOC100996395 / Fold change vs veh, KIAA1704 /// LOC100996395 / RFU, ING1 / Fold change vs veh, ING1 / RFU, TRMT61B / Fold change vs veh, TRMT61B / RFU, FUBP3 / Fold change vs veh, FUBP3 / RFU, TP53 / Fold change vs veh, TP53 / RFU, TNKS2 / Fold change vs veh, TNKS2 / RFU, ZFP14 / Fold change vs veh, ZFP14 / RFU, ACTR2 / Fold change vs veh, ACTR2 / RFU, PPP3R1 / Fold change vs veh, PPP3R1 / RFU, PIK3R1 / Fold change vs veh, PIK3R1 / RFU, HNRNPA1 / Fold change vs veh, HNRNPA1 / RFU, RNF170 / Fold change vs veh, RNF170 / RFU, ZNF28 / Fold change vs veh, ZNF28 / RFU, RNGTT / Fold change vs veh, RNGTT / RFU, OGT / Fold change vs veh, OGT / RFU, BRD1 / Fold change vs veh, BRD1 / RFU, MARS / Fold change vs veh, MARS / RFU, ZNF655 / Fold change vs veh, ZNF655 / RFU, FAHD1 / Fold change vs veh, FAHD1 / RFU, BDP1 / Fold change vs veh, BDP1 / RFU, LRRCC1 / Fold change vs veh, LRRCC1 / RFU, ARID1A / Fold change vs veh, ARID1A / RFU, ZNF146 / Fold change vs veh, ZNF146 / RFU, ZNF330 / Fold change vs veh, ZNF330 / RFU, GPN3 / Fold change vs veh, GPN3 / RFU, C9orf123 / Fold change vs veh, C9orf123 / RFU, N4BP2L2 / Fold change vs veh, N4BP2L2 / RFU, ARFIP1 / Fold change vs veh, ARFIP1 / RFU, FAM179B / Fold change vs veh, FAM179B / RFU, BCL10 / Fold change vs veh, BCL10 / RFU, UHRF1BP1L / Fold change vs veh, UHRF1BP1L / RFU, BET1 / Fold change vs veh, BET1 / RFU, CNOT2 / Fold change vs veh, CNOT2 / RFU, ZNF268 / Fold change vs veh, ZNF268 / Fold change vs veh, ZNF507 / RFU, DGCR2 / Fold change vs veh, DGCR2 / RFU, WDSUB1 / Fold change vs veh, WDSUB1 / Fold change vs veh, HSP90B1 /// MIR3652 / RFU, ADSS / Fold change vs veh, ADSS / RFU, GK / Fold change vs veh, GK / RFU, ZNF148 / Fold change vs veh, ZNF148 / RFU, TAF9 / Fold change vs veh, TAF9 / RFU, SLC1A5 / Fold change vs veh, SLC1A5 / RFU, SLMO2 / Fold change vs veh, SLMO2 / RFU, ABCC4 / Fold change vs veh, ABCC4 / RFU, LOC101060439 /// RAP1B / Fold change vs veh, LOC101060439 /// RAP1B / RFU, RFX7 / Fold change vs veh, RFX7 / RFU, GTPBP10 / Fold change vs veh, GTPBP10 / RFU, CNEP1R1 / Fold change vs veh, CNEP1R1 / RFU, BIVM-ERCC5 /// ERCC5 / Fold change vs veh, BIVM-ERCC5 /// ERCC5 / RFU, ILF3 / Fold change vs veh, ILF3 / RFU 11762660_at / Fold change /veh 11762660_at / RFU VCAN (11757783_s_at) / Fold change /veh VCAN (11757783_s_at) / RFU DDX43 (11728927_at) / Fold change /veh DDX43 (11728927_at) / RFU KRT8 (11758188_x_at) / Fold change /veh KRT8 (11758188_x_at) / RFU NKD1 (11759106_at) / Fold change /veh NKD1 (11759106_at) / RFU SRD5A1 (11742802_a_at) / Fold change /veh SRD5A1 (11742802_a_at) / RFU TPSAB1 /// TPSB2 (11721975_s_at) / Fold change /veh TPSAB1 /// TPSB2 (11721975_s_at) / RFU GSTM3 (11746129_a_at) / Fold change /veh GSTM3 (11746129_a_at) / RFU IL23R (11737362_x_at) / Fold change /veh IL23R (11737362_x_at) / RFU TMEM51 (11727254_a_at) / Fold change /veh TMEM51 (11727254_a_at) / RFU PIWIL2 (11732686_x_at) / Fold change /veh PIWIL2 (11732686_x_at) / RFU ORM1 (11744905_x_at) / Fold change /veh ORM1 (11744905_x_at) / RFU CCDC152 (11743942_at) / Fold change /veh CCDC152 (11743942_at) / RFU ECM1 (11717891_a_at) / Fold change /veh ECM1 (11717891_a_at) / RFU IL23R (11748794_a_at) / Fold change /veh IL23R (11748794_a_at) / RFU TNFAIP8L3 (11732012_x_at) / Fold change /veh TNFAIP8L3 (11732012_x_at) / RFU MBOAT4 (11741988_at) / Fold change /veh MBOAT4 (11741988_at) / RFU 11764193_at / Fold change /veh 11764193_at / RFU TMEM53 (11763286_at) / Fold change /veh TMEM53 (11763286_at) / RFU MAGEB2 (11727129_at) / Fold change /veh MAGEB2 (11727129_at) / RFU TMEM200A (11744735_a_at) / Fold change /veh TMEM200A (11744735_a_at) / RFU CCDC152 (11751479_a_at) / Fold change /veh CCDC152 (11751479_a_at) / RFU FAM211A (11726209_a_at) / Fold change /veh FAM211A (11726209_a_at) / RFU RGS16 (11746705_a_at) / Fold change /veh RGS16 (11746705_a_at) / RFU VCAN (11755009_s_at) / Fold change /veh VCAN (11755009_s_at) / RFU RHOB (11743442_s_at) / Fold change /veh RHOB (11743442_s_at) / RFU RGS16 (11720943_a_at) / Fold change /veh RGS16 (11720943_a_at) / RFU RGS16 (11720944_at) / Fold change /veh RGS16 (11720944_at) / RFU, VPS4B / Fold change vs veh, VPS4B / RFU, CREB1 / Fold change vs veh, CREB1 / RFU, DNAJC13 / Fold change vs veh, DNAJC13 / RFU, GNAQ / Fold change vs veh, GNAQ / RFU, CDK5R1 / Fold change vs veh, CDK5R1 / RFU, ZRANB3 / Fold change vs veh, ZRANB3 / RFU, CUL4A / Fold change vs veh, CUL4A / RFU, CCNY / Fold change vs veh, CCNY / RFU, UFL1 / Fold change vs veh, UFL1 / RFU, COG3 / Fold change vs veh, COG3 / RFU, DIAPH2 / Fold change vs veh, DIAPH2 / RFU, SKA2 / Fold change vs veh, SKA2 / RFU, AFF3 / Fold change vs veh, AFF3 / RFU, LMF1 / Fold change vs veh, LMF1 / RFU, IPO11 / Fold change vs veh, IPO11 / RFU, DFFB / Fold change vs veh, DFFB / RFU, FOXP1 / Fold change vs veh, FOXP1 / RFU, CARD8 / Fold change vs veh, CARD8 / RFU, STRN3 / Fold change vs veh, STRN3 / RFU, ADK / Fold change vs veh, ADK / RFU, RASSF2 / Fold change vs veh, RASSF2 / RFU, WIPF1 / Fold change vs veh, WIPF1 / RFU, LARP1B / Fold change vs veh, LARP1B / RFU, RASA1 / Fold change vs veh, RASA1 / RFU, RB1 / Fold change vs veh, RB1 / RFU, PPFIA1 / Fold change vs veh, PPFIA1 / RFU, MAT2A / Fold change vs veh, MAT2A / RFU, CCT5 / Fold change vs veh, CCT5 / RFU, WDR92 / Fold change vs veh, WDR92 / RFU, CUX1 / Fold change vs veh, CUX1 / RFU, TTC7A / Fold change vs veh, TTC7A / RFU, TMEM135 / Fold change vs veh, TMEM135 / RFU, DEPTOR / Fold change vs veh, DEPTOR / RFU, CPM / Fold change vs veh, CPM / RFU, DNAJB6 / Fold change vs veh, DNAJB6 / RFU, CACNA2D3 / Fold change vs veh, CACNA2D3 / RFU, DTX4 / Fold change vs veh, DTX4 / RFU, TFCP2 / Fold change vs veh, TFCP2 / RFU, GMCL1 /// GMCL1P1 / Fold change vs veh, GMCL1 /// GMCL1P1 / RFU, AEBP2 / Fold change vs veh, AEBP2 / RFU, SNHG1 /// SNORD22 /// SNORD25 /// SNORD26 /// SNORD27 /// SNORD28 /// SNORD29 /// SNORD31 / Fold change vs veh, SNHG1 /// SNORD22 /// SNORD25 /// SNORD26 /// SNORD27 /// SNORD28 /// SNORD29 /// SNORD31 / Fold change (Aza/veh), C12orf56 (ProbeSet 11735607_a_at) / Fold change (ACY-1035/veh), C12orf56 (ProbeSet 11735607_a_at) / Fold change (Aza/veh), FGFR1OP (ProbeSet 11751329_s_at) / Fold change (ACY-1035/veh), FGFR1OP (ProbeSet 11751329_s_at) / Fold change (Aza/veh), VPS36 (ProbeSet 11739960_a_at) / Fold change (ACY-1035/veh), VPS36 (ProbeSet 11739960_a_at) / RFU SYPL1 (11715823_x_at) / Fold change /veh SYPL1 (11715823_x_at) / RFU IGFBP7 (11715501_s_at) / Fold change /veh IGFBP7 (11715501_s_at) / RFU REEP3 (11722064_at) / Fold change /veh REEP3 (11722064_at) / RFU IGLL1 (11728026_x_at) / Fold change /veh IGLL1 (11728026_x_at): dose or concentration left out as unconfirmed
# Conditions: ProbeSet 11717702_a_at; LIST D
smiles,measurement,value
Nc1ccc(-c2cccs2)cc1NC(=O)c1ccc2c(c1)cc(C1CC1)n2CCN1CCOCC1 [ACY-1035],"RFU, RB1",245.16 RFU
